Source: ChEMBL document CHEMBL3792365, “Dioxol and dihydrodioxin analogs of 2- and 3-phenylacetonitriles as potent anti-cancer agents with nanomolar activity against a variety of human cancer cells” (2016)

Experiments:
Assay type in all cases: functional
[1] = Growth inhibition of human SF295 cells at 10 uM after 48 hrs by sulforhodamine B assay; conditions: SF-295, 48 h, values are per cent of control
[2] = Growth inhibition of human OVCAR5 cells at 10 uM after 48 hrs by sulforhodamine B assay; conditions: OVCAR-5, 48 h, values are per cent of control
[3] = Growth inhibition of human BT549 cells at 10 uM after 48 hrs by sulforhodamine B assay; conditions: BT-549, 48 h, values are per cent of control
[4] = Growth inhibition of human SNB19 cells at 10 uM after 48 hrs by sulforhodamine B assay; conditions: SNB-19, 48 h, values are per cent of control
[5] = Growth inhibition of human SF539 cells at 10 uM after 48 hrs by sulforhodamine B assay; conditions: SF-539, 48 h, values are per cent of control
SK-MEL-2 = experiment: Growth inhibition of human SK-MEL-2 cells at 10 uM after 48 hrs by sulforhodamine B assay; conditions: SK-MEL-2, 48 h, values are per cent of control
[6] = Growth inhibition of human Caki1 cells at 10 uM after 48 hrs by sulforhodamine B assay; conditions: CAKI-1, 48 h, values are per cent of control
[7] = Growth inhibition of human Hs 578T cells at 10 uM after 48 hrs by sulforhodamine B assay; conditions: values are per cent of control
[8] = Growth inhibition of human SF268 cells at 10 uM after 48 hrs by sulforhodamine B assay; conditions: SF-268, 48 h, values are per cent of control
A549 = experiment: Growth inhibition of human A549/ATCC cells at 10 uM after 48 hrs by sulforhodamine B assay; conditions: A549, 48 h, values are per cent of control
NCI-H23 = experiment: Growth inhibition of human NCI-H23 cells at 10 uM after 48 hrs by sulforhodamine B assay; conditions: NCI-H23, 48 h, values are per cent of control
HT-29 = experiment: Growth inhibition of human HT-29 cells at 10 uM after 48 hrs by sulforhodamine B assay; conditions: HT-29, 48 h, values are per cent of control
SK-MEL-28 = experiment: Growth inhibition of human SK-MEL-28 cells at 10 uM after 48 hrs by sulforhodamine B assay; conditions: SK-MEL-28, 48 h, values are per cent of control
[9] = Growth inhibition of human UACC62 cells at 10 uM after 48 hrs by sulforhodamine B assay; conditions: UACC-62, 48 h, values are per cent of control
SN12C = experiment: Growth inhibition of human SN12C cells at 10 uM after 48 hrs by sulforhodamine B assay; conditions: values are per cent of control
NCI-H460 = experiment: Growth inhibition of human NCI-H460 cells at 10 uM after 48 hrs by sulforhodamine B assay; conditions: NCI-H460, 48 h, values are per cent of control
MDA-MB-468 = experiment: Growth inhibition of human MDA-MB-468 cells at 10 uM after 48 hrs by sulforhodamine B assay; conditions: MDA-MB-468, 48 h, values are per cent of control
KM12 = experiment: Growth inhibition of human KM12 cells at 10 uM after 48 hrs by sulforhodamine B assay; conditions: KM12, 48 h, values are per cent of control
K562 = experiment: Growth inhibition of human K562 cells at 10 uM after 48 hrs by sulforhodamine B assay; conditions: K562, 48 h, values are per cent of control
MDA-MB-435 = experiment: Growth inhibition of human MDA-MB-435 cells at 10 uM after 48 hrs by sulforhodamine B assay; conditions: MDA-MB-435, 48 h, values are per cent of control
[10] = Growth inhibition of human OVCAR4 cells at 10 uM after 48 hrs by sulforhodamine B assay; conditions: OVCAR-4, 48 h, values are per cent of control
T47D = experiment: Growth inhibition of human T47D cells at 10 uM after 48 hrs by sulforhodamine B assay; conditions: values are per cent of control
[11] = Growth inhibition of human IGROV1 cells at 10 uM after 48 hrs by sulforhodamine B assay; conditions: IGROV-1, 48 h, values are per cent of control
[12] = Growth inhibition of human HCC2998 cells at 10 uM after 48 hrs by sulforhodamine B assay; conditions: HCC 2998, 48 h, values are per cent of control
M14 = experiment: Growth inhibition of human M14 cells at 10 uM after 48 hrs by sulforhodamine B assay; conditions: M14, 48 h, values are per cent of control
[13] = Growth inhibition of human UO31 cells at 10 uM after 48 hrs by sulforhodamine B assay; conditions: UO-31, 48 h, values are per cent of control
[14] = Growth inhibition of human SW620 cells at 10 uM after 48 hrs by sulforhodamine B assay; conditions: SW-620, 48 h, values are per cent of control
[15] = Growth inhibition of human TK10 cells at 10 uM after 48 hrs by sulforhodamine B assay; conditions: TK-10, 48 h, values are per cent of control
NCI-H226 = experiment: Growth inhibition of human NCI-H226 cells at 10 uM after 48 hrs by sulforhodamine B assay; conditions: NCI-H226, 48 h, values are per cent of control
MDA-MB-231 = experiment: Growth inhibition of human MDA-MB-231 cells at 10 uM after 48 hrs by sulforhodamine B assay; conditions: MDA-MB-231, 48 h, values are per cent of control
[16] = Growth inhibition of human HCT116 cells at 10 uM after 48 hrs by sulforhodamine B assay; conditions: HCT-116, 48 h, values are per cent of control
[17] = Growth inhibition of human LOXIMVI cells at 10 uM after 48 hrs by sulforhodamine B assay; conditions: LOX IMVI, values are per cent of control
U-251 = experiment: Growth inhibition of human U251 cells at 10 uM after 48 hrs by sulforhodamine B assay; conditions: U-251, 48 h, values are per cent of control
[18] = Growth inhibition of human DU145 cells at 10 uM after 48 hrs by sulforhodamine B assay; conditions: DU-145, 48 h, values are per cent of control
[19] = Growth inhibition of human SNB75 cells at 10 uM after 48 hrs by sulforhodamine B assay; conditions: SNB-75, 48 h, values are per cent of control
NCI-H522 = experiment: Growth inhibition of human NCI-H522 cells at 10 uM after 48 hrs by sulforhodamine B assay; conditions: NCI-H522, 48 h, values are per cent of control
[20] = Growth inhibition of human COLO205 cells at 10 uM after 48 hrs by sulforhodamine B assay; conditions: COLO 205, 48 h, values are per cent of control
NCI-H322M = experiment: Growth inhibition of human NCI-H322M cells at 10 uM after 48 hrs by sulforhodamine B assay; conditions: values are per cent of control
[21] = Growth inhibition of human HOP62 cells at 10 uM after 48 hrs by sulforhodamine B assay; conditions: HOP-62, 48 h, values are per cent of control
A498 = experiment: Growth inhibition of human A498 cells at 10 uM after 48 hrs by sulforhodamine B assay; conditions: A498, 48 h, values are per cent of control

COc1ccc(/C=C(\C#N)c2ccc3c(c2)OCO3)c2ccccc12
growth, % of control at 10 µM [1]: 5.6% | growth, % of control at 10 µM [2]: 55.7% | growth, % of control at 10 µM [3]: 26.6% | growth, % of control at 10 µM [4]: 36.1% | growth, % of control at 10 µM [5]: -42.9% | growth, % of control at 10 µM (SK-MEL-2): 13.1% | growth, % of control at 10 µM [6]: 30.8% | growth, % of control at 10 µM [7]: -14.1% | growth, % of control at 10 µM [8]: 34% | growth, % of control at 10 µM (A549): 31.7% | growth, % of control at 10 µM (NCI-H23): 49.9% | growth, % of control at 10 µM (HT-29): 10% | growth, % of control at 10 µM (SK-MEL-28): 43.6% | growth, % of control at 10 µM [9]: 25.1% | growth, % of control at 10 µM (SN12C): 38.6% | growth, % of control at 10 µM (NCI-H460): 13.2% | growth, % of control at 10 µM (MDA-MB-468): -14.5% | growth, % of control at 10 µM (KM12): 21% | growth, % of control at 10 µM (K562): 19.1% | growth, % of control at 10 µM (MDA-MB-435): -26.3% | growth, % of control at 10 µM [10]: 49.7% | growth, % of control at 10 µM (T47D): 38.2% | growth, % of control at 10 µM [11]: 36.3% | growth, % of control at 10 µM [12]: 45.7% | growth, % of control at 10 µM (M14): 16.2% | growth, % of control at 10 µM [13]: 42.1% | growth, % of control at 10 µM [14]: 10.6% | growth, % of control at 10 µM [15]: 43.8% | growth, % of control at 10 µM (NCI-H226): 38.5% | growth, % of control at 10 µM (MDA-MB-231): 39.4% | growth, % of control at 10 µM [16]: 21.1% | growth, % of control at 10 µM [17]: 35.2% | growth, % of control at 10 µM (U-251): 18.7% | growth, % of control at 10 µM [18]: 14.9% | growth, % of control at 10 µM [19]: -3.1% | growth, % of control at 10 µM (NCI-H522): 1.4% | growth, % of control at 10 µM [20]: 7.6% | growth, % of control at 10 µM (NCI-H322M): 34.3% | growth, % of control at 10 µM [21]: 44.4% | growth, % of control at 10 µM (A498): -8.4%

COc1ccc(/C(C#N)=C/c2ccc3c(c2)OCCO3)cc1
growth, % of control at 10 µM [1]: 66.7% | growth, % of control at 10 µM [2]: 88% | growth, % of control at 10 µM [3]: 56.6% | growth, % of control at 10 µM [4]: 83.3% | growth, % of control at 10 µM [5]: 63.7% | growth, % of control at 10 µM (SK-MEL-2): 36% | growth, % of control at 10 µM [6]: 64.2% | growth, % of control at 10 µM [7]: 79.6% | growth, % of control at 10 µM [8]: 71.9% | growth, % of control at 10 µM (A549): 41.5% | growth, % of control at 10 µM (NCI-H23): 78.3% | growth, % of control at 10 µM (HT-29): 21.8% | growth, % of control at 10 µM (SK-MEL-28): 75.3% | growth, % of control at 10 µM [9]: 53.7% | growth, % of control at 10 µM (SN12C): 72.1% | growth, % of control at 10 µM (NCI-H460): 33.4% | growth, % of control at 10 µM (MDA-MB-468): 14.8% | growth, % of control at 10 µM (KM12): 27.8% | growth, % of control at 10 µM (K562): 18.7% | growth, % of control at 10 µM (MDA-MB-435): -29.8% | growth, % of control at 10 µM [10]: 94.6% | growth, % of control at 10 µM (T47D): 40.4% | growth, % of control at 10 µM [11]: 71.3% | growth, % of control at 10 µM [12]: 55.7% | growth, % of control at 10 µM (M14): 38.5% | growth, % of control at 10 µM [13]: 73.2% | growth, % of control at 10 µM [14]: 28.8% | growth, % of control at 10 µM [15]: 65.2% | growth, % of control at 10 µM (NCI-H226): 81.2% | growth, % of control at 10 µM (MDA-MB-231): 68.4% | growth, % of control at 10 µM [16]: 38.8% | growth, % of control at 10 µM [17]: 56.7% | growth, % of control at 10 µM (U-251): 36.3% | growth, % of control at 10 µM [18]: 84.7% | growth, % of control at 10 µM [19]: 61.1% | growth, % of control at 10 µM (NCI-H522): 39.3% | growth, % of control at 10 µM [20]: 50.5% | growth, % of control at 10 µM (NCI-H322M): 77.5% | growth, % of control at 10 µM [21]: 68.3% | growth, % of control at 10 µM (A498): 70.9%
